Reference: patent publication US20200268864A1, “CANCER VACCINE COMPOSITIONS AND METHODS FOR USING SAME TO TREAT CANCER” (Dana-Farber Cancer Institute, Inc., priority 2017, published 2020)
Entries after “also recorded” stand apart in the source; their conditions may differ. Residues, ends and D or L forms follow the SMILES beside them. *: point of attachment. Cbz = O=C(OCc1ccccc1)*; CH2F = FC*

Experiments:
STING signaling in BMDCs = test: BMDCs stimulated with STING agonist DMXAA; format: cell-based, mouse
Protocol: (§1) Blood was obtained by retro-orbital sampling at intermediate time points or experimental end points. Blood cells and plasma/sera were separated by centrifugation at 1,500×g for 5 min. at 4° C. Plasmaisera were sent out to Eve Technologies for cytokine array analysis (Chemokine Array 31-Plex and Mouse Procarta IFN 2-plex Featured Assay). Plasma/sera were applied to ELISA according to manufacturer's instructions. For in vitro experiments, cell culture supernatants were obtained by centrifugation at 1,500×g for 5 min. at 4° C. to remove all debris and cells, and were then subjected to ELISA analysis. IFN-β was detected using the LEGEND MAX™ Mouse IFN-β ELISA Kit (BioLegend).
(§2) About 50 to 100 mg of tumor samples were homogenized in 1 ml of TRIzol™ Reagent supplied with 200 μl of stainless steel beads and 0.2 ml of chloroform was added to the samples. Samples were vortexed vigorously for 15 seconds and then incubated at room temperature for 2 to 3 minutes. After centrifugation at 12,000×g for 15 minutes at 4° C., upper aqueous phase of the samples was carefully removed to a new tube and the total RNA was purified using an RNeasy® Mini Kit (Qiagen) according to manufactory's instruction. For the in vitro cultured cell samples, total RNA was isolated using an RNeasy® Mini Kit. The qPCR was performed on an Applied Biosystems 7300 machine after the total RNA was reverse transcribed to cDNA using the SuperScript® III First-Strand Synthesis System (Invitrogen). Primers used for qPCR were as follows: […]

[1] = tested on: STING pathway in BMDCs co-cultured with PBM cells; test: Co-culture of BMDCs with olaparib-treated PBM tumor cells; format: cell-based, mouse
Protocol: as §1
Bone marrow cells were isolated from FVB/NJ mice and cultured in RPMI-1640 containing 10% FBS and 20 ng/ml GM-CSF. BMDCs (bone marrow derived dendritic cells) were harvested for in vitro co-culture assay on day 7 to day 10. About 3×10^5 PBM or PPM tumor cells were cultured in a 6-well plate for 24 hr. and then treated with DMSO or olaparib. After 24 hr incubation with DMSO, olaparib, or olaparib in combination with other drugs (cell cycle inhibitor or apoptosis inhibitor), drugs were removed and tumor cells were washed twice with PBS. BMDCs were added and co-cultured with PBM or PPM cells at a ratio of 1:1 in 1.5 ml culture media in the presence of GM-CSF (20 ng/ml) and lipofectamine (2 μl) for 24 hr. Co-cultured cells were harvested for flow cytometry analysis and floating cells (percentage of BMDCs is about 90%), or RNA analysis. Cell culture supernatants were collected for detection of IFN-β with the ELISA kit. BMDCs generated from C57BL/6J mice were applied for the coculture of BMDCs with ID8 tumor cells. Human dendritic cells purchased from Lonza were used for the coculture of human DCs with DMSO or olaparib-treated human ovarian cancer cells ([…] and UWB1.289+BRCA1).
as §2

[2] = tested on: PBM tumors (Trp53−/−; Brca1−/−; c-Myc); test: Orthotopic PBM tumor allograft growth and survival (bioluminescence); format: in vivo, mouse; conditions: PBM tumors; agent given together with olaparib
Protocol: All animal experiments described in this study were performed according to the animal protocols approved by the DFCI Institutional Animal Care and Use Committee. Brca1^loxP/loxP [FVB/N] mice, bearing loxP sites in introns 4 and 13 of the Brca1 gene, and Trp53^loxP/loxP[FVB/N] mice bearing loxP in introns 2 and 10 of the p53 gene, were obtained from Dr. Jos Jonkers's laboratory (Netherlands Cancer Institute, Amsterdam, The Netherlands). These mice were intercrossed through multiple generations to create a colony of homozygous Trp53^loxP/loxP/Brca1^loxP/loxP double conditional knockout mice. Ovaries were harvested from 8-week-old female Trp53^loxP/loxP/Brca1^loxP/loxP mice. The ovaries were washed twice with phosphate-buffered and incubated in DMEM/F12 (Ham's) medium containing collagenase and dispase (stem cell technologies) for 40 min at 37° C. The epithelial cells were pelleted by centrifugation at 800×g and cultured in DMEM/F12 (Life Technologies) supplemented with 4% (vol/vol) FBS, 1% penicillin/streptomycin, 10 ng/mL EGF, 5 μg/mL insulin, 5 Cpg/mL transferrin, and 5 ng/mL sodium selenite. Ovarian surface epithelial (OSE) cells were cultured for 48 hr and then introduced with Adeno-Cre (University of Iowa) and lentiviruses expressing C-Myc gene (Addgene #36980) or control GFP. After two days of infection in vitro, OSE cells are aggregated and implanted into recipient mice. About 5×10^5 OSE cells (Trp53^−/−; Brca1^−/−; c-Myc) were injected into the right ovarian bursal cavities of 6- to 7-week-old female nude mice. In each mouse, the left ovarian bursa was injected with GFP-expressing OSE cells (Trp53^−/−; Brca1^−/−; GFP). PBM (Trp53^−/−; Brca1^−/−; c-Myc) ovarian tumors developed within three to six months after implantation of the genetically engineered OSE cells. The primary ovarian tumors were digested and orthotopically transplanted to FVB/NJ mice. The PPM GEM model (Trp53^−/−; Pten^−/−; c-Myc) was developed with OSE cells isolated from homozygous Trp53^loxP/loxP/Pten^loxP/loxP(FVB/NJ) double conditional knockout mice using the same strategy for generation of the PBM GEM model described above. For histological analysis, tumor pieces were fixed in 10% Formalin overnight and transferred to 70% ethanol. Embedding, sectioning and H&E staining was performed by scientists at the Harvard rodent histopathology core facility. The histological characteristics of high grade ovarian tumor were confirmed by two independent pathologists at Harvard Medical School.
Single cells were obtained by digestion of primary ovarian tumors in collagenase buffer and then cultured in MOT media (DMEM/F12, 0.6% FBS, 10 ng/ml EGF, hydrocortisone 1 μg/ml, cholera toxin 1 ng/ml, 100 μg/ml penicillin-streptomycin, 5 μM Y27632). […] The endpoints were determined by tumor burden and ascites. […]

[3] = tested on: Brca1-proficient and Brca1-deficient tumor cells; test: Measurement of IC50 value in tumor cells (MTS, 72 h); format: cell-based; conditions: three pairs of models; for gemcitabine except PPM and PBM cells
Protocol: Tumor cells were seeded in 96-well plates at a density of 1000-3000/well and allowed to adhere overnight. Cells were then exposed to appropriate concentrations of therapeutic agents (or vehicle control) with continuous exposure for 72 h. Growth inhibition was measured by CellTiter Aqueous MTS reagent from Promega by comparing the absorbance at 490 nm of drug-treated cells to that of untreated controls set at 100%. 1C50 values were calculated using non-linear regression model (logarithmic inhibitor vs. normalized response-variable slope) in Graphpad Prism 7.

[4] = tested on: STING pathway in BMDCs co-cultured with ID8 cells; test: Co-culture of BMDCs with drug-treated WT or Brca1-null ID8 cells; format: cell-based, mouse; conditions: co-cultured with both Brca1-deficient and Brca1 proficient ID8 cells
Protocol: Brca-1 deficient ID8 cells were generated using a CRISPR double nickase plasmid. ID8 cells cultured in a 6-well plate were transfected with 2 μg/well of BRCA1 double nickase plasmid (sc419362-NIC, Santa Cruz Biotechnology) or control double nickase plasmid (SC-437281, Santa Cruz Biotechnology) using lipofectamine 3000 (Invitrogen). 48 hrs post-transfection, cells were passaged onto a 10 cm plate. After 24 h, puromycin (3 μg/mL) was added to the culture for selection. Puromycin resistant cells were selected and expanded. Due to a lack of a reliable mouse BRCA1 antibody for Western blot, cells were analyzed by DNA sequencing to confirm the disruption of functional Brca1 allele. To generate ID8 tumors, cultured ID8 cells were harvested and resuspended in serum free DMEM. Cells were then mixed with Matrigel (Corning). A total volume of 0.1 ml containing 5×10^6 ID8 cells and 40% Matrigel were injected subcutaneously into the flank of C57BL/6J mice.
Bone marrow cells were isolated from FVB/NJ mice and cultured in RPMI-1640 containing 10% FBS and 20 ng/ml GM-CSF. BMDCs (bone marrow derived dendritic cells) were harvested for in vitro co-culture assay on day 7 to day 10. About 3×10^5 PBM or PPM tumor cells were cultured in a 6-well plate for 24 hr. and then treated with DMSO or olaparib. […]

O=C(NCCCNc1nc(Nc2cccc(NC(=O)N3CCCC3)c2)ncc1I)c1cccs1 [BX795]
effect on DMXAA-induced IFN-β production from BMDCs (STING signaling in BMDCs; BX795 2 μM, 2 h): abolished | effect on olaparib-induced IFNβ/CXCL10 expression and STING activation in co-cultured DCs ([1]; agent added to the co-culture): abrogated | effect on olaparib-induced phosphorylation of TBK1 in CD11c dendritic cells ([1]; agent added to the co-culture): reduced | effect of added agent on olaparib-induced tumor inhibition / antitumor activity of olaparib [2]: blocked the anti-tumor activity of olaparib; also recorded: attenuated

Cc1ccc2c(=O)c3cccc(CC(=O)O)c3oc2c1C [DMXAA, 5,6-dimethylxanthenone-4-acetic acid]
IFN-β production from BMDCs in culture (STING signaling in BMDCs; DMXAA 5 μg/ml, 2 h): strong IFN-β production | STING signaling in BMDCs (STING signaling in BMDCs; Western blot): activation of the STING signaling

Nc1ccn([C@@H]2O[C@H](CO)[C@@H](O)C2(F)F)c(=O)n1 [gemcitabine]
IC50 values, Brca1-deficient lines in comparison to Brca1-proficient counterparts [3]: no substantial differences

CC(=O)O[C@H]1C(=O)[C@@]2(C)[C@H]([C@H](OC(=O)c3ccccc3)[C@]3(O)C[C@H](OC(=O)[C@H](O)[C@@H](NC(=O)c4ccccc4)c4ccccc4)C(C)=C1C3(C)C)[C@]1(OC(C)=O)CO[C@@H]1C[C@@H]2O [paclitaxel]
phosphorylation of TBK1 and IRF3 in BMDCs [4]: increased | IC50 values, Brca1-deficient lines in comparison to Brca1-proficient counterparts [3]: no substantial differences

Cn1ncnc1[C@H]1c2n[nH]c(=O)c3cc(F)cc(c23)N[C@@H]1c1ccc(F)cc1 [talazoparib]
IC50 values, Brca1-deficient lines in comparison to Brca1-proficient counterparts [3]: much more sensitive

CC(NC(=O)C(NC(=O)OCc1ccccc1)C(C)C)C(=O)NC(CC(=O)O)C(=O)CF (stereo not drawn) [zVAD] (Cbz-Val-Ala-Asp-CH2F; configuration not given here)
effect of apoptosis inhibitor on activation of DCs co-cultured with olaparib-treated PBM cells ([1]; zVAD 10 μM with olaparib 2.5 μM, 24 h pre-treatment): little effect
